Experimental findings from paper PMC9217576, “Urease and α-Chymotrypsin Inhibitory Activities and Molecular Docking Studies of Alkaloids Isolated from Medicinal Plant Isatis minima Bunge” (Evidence-based Complementary and Alternative Medicine : eCAM, 2022) are described below.

Common to all, as to type: biochemical
Experiment [1] deals with Bacillus pasteurii urease (Sporosarcina pasteurii, UniProt P41020). Nature of the experiment: In vitro urease inhibition assay (indophenol method). The settings on record: for IC50: SEM of five determinations, pH 6.8, 30°C.
The target in experiment [2] is Jack bean urease (Canavalia ensiformis, UniProt P07374). Nature of the experiment: biochemical. The settings on record: for IC50: SEM of five determinations, pH 6.8, 30°C.
In experiment [3] the target is α-chymotrypsin (Bos taurus, UniProt P00766). As to the kind of experiment: In vitro chymotrypsin inhibition assay. The settings on record: for IC50: SEM of five determinations, Tris-HCl pH 7.6, 25°C.
The mark [4] stands for this setting: read-out: Urease IC50 ± SEM (Bacillus pasteurii urease).
[5] abbreviates: Urease IC50 ± SEM (Jack bean urease).
[6] abbreviates: Urease IC50 ± SEM (Bacillus pasteurii urease).

Read-outs that look alike come from different tables or passages of the source.

Chain of Jack bean urease (P07374 whole entry, looked up): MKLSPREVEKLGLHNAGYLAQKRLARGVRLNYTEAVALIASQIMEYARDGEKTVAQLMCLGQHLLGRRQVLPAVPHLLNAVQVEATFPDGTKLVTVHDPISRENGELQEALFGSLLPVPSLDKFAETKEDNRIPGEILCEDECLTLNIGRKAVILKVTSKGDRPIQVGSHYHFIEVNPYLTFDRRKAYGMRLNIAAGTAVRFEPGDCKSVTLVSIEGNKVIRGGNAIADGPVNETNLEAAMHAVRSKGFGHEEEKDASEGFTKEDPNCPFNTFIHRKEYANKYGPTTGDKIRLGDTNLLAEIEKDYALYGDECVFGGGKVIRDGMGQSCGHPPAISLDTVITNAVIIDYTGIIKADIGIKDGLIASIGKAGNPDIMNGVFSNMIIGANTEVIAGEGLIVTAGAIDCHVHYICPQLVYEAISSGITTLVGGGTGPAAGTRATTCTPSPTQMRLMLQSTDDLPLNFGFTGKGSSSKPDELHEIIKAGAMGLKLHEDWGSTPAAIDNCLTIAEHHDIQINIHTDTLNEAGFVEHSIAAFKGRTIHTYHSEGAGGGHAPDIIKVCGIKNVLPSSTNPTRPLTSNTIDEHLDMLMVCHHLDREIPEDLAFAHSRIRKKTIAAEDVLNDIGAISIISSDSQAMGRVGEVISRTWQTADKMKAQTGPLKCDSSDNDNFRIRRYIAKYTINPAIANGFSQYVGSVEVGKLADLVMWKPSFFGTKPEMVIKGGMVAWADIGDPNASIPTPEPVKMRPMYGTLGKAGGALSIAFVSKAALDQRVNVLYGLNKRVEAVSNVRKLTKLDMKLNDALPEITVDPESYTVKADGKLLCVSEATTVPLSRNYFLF
Chain of Bacillus pasteurii urease (P41022 whole entry): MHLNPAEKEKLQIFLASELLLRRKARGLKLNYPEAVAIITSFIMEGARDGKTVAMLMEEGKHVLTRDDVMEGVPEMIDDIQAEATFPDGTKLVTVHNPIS
Chain of Bacillus pasteurii urease (P41020 whole entry): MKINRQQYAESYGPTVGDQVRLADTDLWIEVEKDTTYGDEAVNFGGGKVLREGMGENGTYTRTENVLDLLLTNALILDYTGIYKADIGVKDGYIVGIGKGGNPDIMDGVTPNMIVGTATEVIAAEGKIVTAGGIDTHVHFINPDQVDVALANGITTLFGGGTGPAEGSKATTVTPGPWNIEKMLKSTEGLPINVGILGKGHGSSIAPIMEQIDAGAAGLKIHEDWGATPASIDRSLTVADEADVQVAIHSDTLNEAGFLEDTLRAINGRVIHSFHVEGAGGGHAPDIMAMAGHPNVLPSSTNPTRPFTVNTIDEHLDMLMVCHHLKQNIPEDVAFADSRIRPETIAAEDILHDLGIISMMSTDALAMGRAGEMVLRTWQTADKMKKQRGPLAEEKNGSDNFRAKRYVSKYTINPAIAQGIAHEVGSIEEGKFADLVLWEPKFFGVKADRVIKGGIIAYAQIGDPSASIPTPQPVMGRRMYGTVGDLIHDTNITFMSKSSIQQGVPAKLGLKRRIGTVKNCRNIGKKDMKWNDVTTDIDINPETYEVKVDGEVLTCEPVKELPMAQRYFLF
Chain of Bacillus pasteurii urease (P41021 whole entry, further chain): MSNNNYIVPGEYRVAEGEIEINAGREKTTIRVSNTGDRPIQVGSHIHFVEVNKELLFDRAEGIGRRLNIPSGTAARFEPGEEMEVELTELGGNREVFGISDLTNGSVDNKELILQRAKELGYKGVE

For orientation: IC50 means the midpoint of a concentration-inhibition curve. Take `O=C1C(c2[nH]c3ccccc3c2C2=c3ccccc3=N/C2=C2\Nc3ccccc3C2=O)=Nc2ccccc21` [Bisindigotin]: in experiment [1], the “inhibitory activity against Bacillus pasteurii urease (in words)” value is recorded as “significant inhibitory activity”. The figures for the half-inhibitory concentration (IC50) in experiment [1] (setting [4]), in experiment [2] (setting [5]) and in experiment [3] were 42.04 ± 0.07 µM, 58.15 ± 0.02 µM and 34.01 ± 0.07 µM, respectively. In addition, the “inhibitory activity against Jack bean urease (in words)” value in experiment [2] is recorded as “significant inhibitory activity”. In experiment [3], the “inhibitory potential against α-chymotrypsin (in words)” value was “moderate inhibitory potential”.

Turning to `O=C1/C(=c2\c3ccccc3n3c(=O)c4ccccc4nc23)Nc2ccccc21` [Candidine], in experiment [1], the “inhibitory activity against Bacillus pasteurii urease (in words)” value was “significant inhibitory activity”. Also, in experiment [1] (setting [6]), the IC50 turned out to be 46.12 ± 0.05 µM. For the same compound, in experiment [3], the “inhibitory potential against α-chymotrypsin (in words)” value is listed as “moderate inhibitory potential” and the IC50 is 44.07 ± 0.04 µM.

Turning to `COc1cc(C2c3c(c4ccccc4[nH]c3=O)C(=O)N3CCCC23)cc(OC)c1O` (stereo not shown) [Isaindigotidione], the IC50 in experiment [1] (setting [4]) came out at 20.04 ± 0.09 µM; in experiment [2] (setting [5]) it was 29.03 ± 0.04 µM; in experiment [3], 16.09 ± 0.07 µM.

In the case of `COc1cc(/C=C2\CCn3c2nc2ccccc2c3=O)cc(OC)c1O` [Isaindigotone], the IC50 in experiment [1] (setting [4]) was 26.13 ± 0.08 µM; in experiment [1] (setting [6]), 29.03 ± 0.04 µM; in experiment [2] (setting [5]) it was 34.03 ± 0.07 µM; in experiment [3], 22.01 ± 0.06 µM.

Consider `NC(N)=S` [Thiourea, reference compound], for which the IC50 amounted to 14.03 ± 0.08 µM in experiment [1] (setting [4]) and 18.04 ± 0.01 µM in experiment [2] (read-out: Urease IC50 ± SEM (Jack bean urease)).
